For data set [1] the following is noted: from C[C@@H]1CN(c2ncc(Cl)c(Nc3cc(OCC(=O)O)c4c(c3)[nH]c(=O)n4C)n2)C[C@H](N)C1(F)F; amide bond; 14-membered ring; HATU/DIEA; DMF; 141.0 mM; 20.0 °C; 2.0 h.
The conditions of data set [2]: snar bond, 14-membered ring, DIEA, 80.0 °C, 12.0 h.
The target of a further data set is T1, BCL6 (Homo sapiens, UniProt P41182).
T1 construct: Endogenous BCL6 was tagged with the 11-amino acid SmBiT through CRISPR/Cas9 gene editing; endogenous in cells; host or cells: Su-DHL-4 cells, CRISPR/Cas9 knock-in single cell clone
As to the kind of experiment: HiBiT cellular degradation assay (Promega) in Su-DHL-4 cells. The format is cell-based. The settings on record: concentration to reach 50% degradation; endogenous BCL6 tagged with SmBiT in Su-DHL-4 cells; 24 hr of compound treatment; relative to DMSO control. On the procedure:
DC50 (concentration to reach 50% degradation) values were determined from a cellular degradation assay (HiBiT, Promega™) in Su-DHL-4 cells (Table 1). Endogenous BCL6 was tagged with the 11-amino acid SmBiT through CRISPR/Cas9 gene editing and single cell clone selection. After 24 hr of compound treatment, cells were lysed and incubated with LgBiT protein to reconstitute intact nanoluciferase. Substrate was then added and relative luciferase units were measured. Degradation levels for each treatment were taken as a percentage compared to the control, 100% DMSO (Prism).
For orientation: HiBiT is a short tag that completes a luciferase, so light tracks the accessible tagged protein.

For data set [3] the following is noted: snar bond, 14-membered ring, DIEA, DMSO, 80.0 °C, 12.0 h.

The structures appear in SMILES notation. Like-named read-outs stand apart in the source and are kept apart here.

Here are results for five molecules from patent US20260159527A1, “MACROCYCLIC BCL6 DEGRADERS” (DANA-FARBER CANCER INSTITUTE, INC., priority 2022, published 2026).

In turn, `C[C@@H]1CN2C[C@H](NC(=O)COc3cc(cc4[nH]c(=O)n(C)c34)Nc3nc2ncc3Cl)C1(F)F` had a ring closure, crude yield in data set [1] of 59%.

In turn, `CNC(=O)COc1cc2cc3cc(c2n(C)c1=O)OCCC[C@H]1CN(C[C@@H](C)C1(F)F)c1ncc(Cl)c(n1)N3` [Compound 4, 2-(((1^3S, 1^5R)-2^5-chloro-1^4,1^4-difluoro-13,41-dimethyl-4^2-oxo-4^1,4^2-dihydro-5-oxa-3-aza-4(6,8)-quinolina-2(2,4)-pyrimidina-1 (1,3)-piperidinacyclooctaphane-4^3-yl)oxy)-N-methylacetamide] had a ring closure, yield after HPLC in data set [2] (from CNC(=O)COc1cc2cc(Nc3nc(Cl)ncc3Cl)cc(OCCC[C@H]3CNC[C@@H](C)C3(F)F)c2n(C)c1=O, DMF, 140.0 mM) of 12%. Moreover, half-maximal degradation on BCL6 (DC50) was put at 0.68 nM.

In turn, `CNC(=O)COc1cc2cc3cc(c2n(C)c1=O)OCCO[C@@H]1C[C@H](C)CN(C1)c1ncc(Cl)c(n1)N3` [Compound 6, 2-(((1^3R, 1^5S)-2^5-chloro-1^5,4^1-dimethyl-4^2-oxo-4^1, 4^2-dihydro-5,8-dioxa-3-aza-4(6.8)-quinolina-2(2,4)-pyrimidina-1 (1,3)-piperidinacyclooctaphane-4^3-yl)oxy)-N-methylacetamide] registered a ring closure, yield after HPLC in data set [2] (from CNC(=O)COc1cc2cc(Nc3nc(Cl)ncc3Cl)cc(OCCO[C@H]3CNC[C@@H](C)C3)c2n(C)c1=O, DMSO, 36.0 mM) of 12%. On BCL6, this molecule showed a half-maximal degradation concentration (DC50) of 0.61 nM.

As for `C[C@@H]1CN2C[C@H](CCCOc3cc(cc4[nH]c(=O)n(C)c34)Nc3nc2ncc3Cl)C1(F)F` [Compound 26, (1^3S,1^3R)-2^5-chloro-1^4,1^4-difluoro-1^5,4^3-dimethyl-4^2,4^3-dihydro-4 H-5-oxa-3-aza-4(6,4)-benzo[d]imidazola-2(2,4)-pyrimidina-1 (1,3)-piperidinacyclooctaphan-4^2-one], at BCL6, it took 72 nM to reach half-maximal degradation (DC50). Also, the ring closure, isolated yield in data set [3] (from C[C@@H]1CNC[C@H](CCCOc2cc(Nc3nc(Cl)ncc3Cl)cc3[nH]c(=O)n(C)c23)C1(F)F, 27.1 mM) turned out to be 64%.

Take `C[C@H]1CN2C[C@@H](CCCOc3cc(cc4[nH]c(=O)n(C)c34)Nc3nc2ncc3Cl)C1(F)F` [Compound 27, (1^3R, 1^5S)-2^5-chloro-1^4,1^4-difluoro-1^5,4^3-dimethyl-4^2,4^3-dihydro-4^1H-5-oxa-3-aza-4(6,4)-benzo[d]imidazola-2(2,4)-pyrimidina-1 (1,3)-piperidinacyclooctaphan-4^2-one]: the DC50 at BCL6 is greater than 400 nM. This molecule also yielded a ring closure, isolated yield in data set [3] (from C[C@H]1CNC[C@@H](CCCOc2cc(Nc3nc(Cl)ncc3Cl)cc3[nH]c(=O)n(C)c23)C1(F)F, 40.6 mM) of 63%.

In general, DC50 refers to the concentration at which degradation of the target reaches its halfway point. The low end stands for a more potent degrader, the high end for a less potent degrader.
